Measurements published in the NIST ThermoML archive (doi:10.1016/j.jct.2014.08.018).
Several values for one entry are separate records, joined by “and”; a condition that tells them apart may be missing. Equal values may be shown once.

Details: 101.33 kPa, Liquid; for mass density: Vibrating tube method; for viscosity: Capillary tube (Ostwald / Ubbelohde) method

CCCCCC[n+]1ccn(C)c1.O=S(=O)([N-]S(=O)(=O)C(F)(F)F)C(F)(F)F
Details	mass density [kg/m3]	viscosity
288.15 K	1381.3	–
288.19 K	–	115.89 mPa·s and 115.81 mPa·s
298.12 K	–	69.47 mPa·s and 69.62 mPa·s
298.15 K	1372.2	–
308.05 K	–	44.87 mPa·s
308.11 K	–	44.86 mPa·s
308.15 K	1363	–
317.95 K	–	30.77 mPa·s
318.07 K	–	30.77 mPa·s
318.15 K	1353.9	–
328.08 K	–	21.92 mPa·s and 21.92 mPa·s
328.15 K	1344.9	–

CCCCn1cc[n+](C)c1.N#CN=C=[N-] [1-butyl-3-methylimidazolium dicyanamide]
Details	mass density [kg/m3]	viscosity
288.15 K	1066.9	–
288.17 K	–	45.86 mPa·s
288.22 K	–	45.82 mPa·s
298.11 K	–	30.15 mPa·s and 30.15 mPa·s
298.15 K	1060.5	–
308.05 K	–	20.91 mPa·s
308.12 K	–	20.94 mPa·s
308.15 K	1054.2	–
318.05 K	–	15.21 mPa·s
318.06 K	–	15.19 mPa·s
318.15 K	1047.9	–
328.05 K	–	11.56 mPa·s
328.08 K	–	11.55 mPa·s
328.15 K	1041.7	–

CCCCCCCCCCCCCC[P+](CCCCCC)(CCCCCC)CCCCCC.N#C[N-]C#N [tetradecyl(trihexyl)phosphonium dicyanamide]
Details	mass density [kg/m3]	viscosity [mPa·s]
288.15 K	903.4	–
288.17 K	–	665.15
288.31 K	–	664.13
298.07 K	–	362.32
298.11 K	–	362.9
298.15 K	897.6	–
308.05 K	–	210.07
308.09 K	–	210.09
308.15 K	891.9	–
318.01 K	–	129.78
318.06 K	–	129.77
318.15 K	886.3	–
328.03 K	–	83.95
328.08 K	–	83.81
328.15 K	880.7	–
